Source: publication PMC10388305, “Synthesis and Evaluation of a Monomethyl Auristatin E—Integrin αvβ6 Binding Peptide–Drug Conjugate for Tumor Targeted Drug Delivery” (Journal of Medicinal Chemistry, 2023)
Entries after “also recorded” stand apart in the source; their conditions may differ.

What was measured:
DX3puroβ6 (+) cells [1] = experiment: Caspase-3/7 activity assay (ApoTox-Glo), DX3puroβ6; assay type: cell-based; conditions: for Caspase-3/7 activity (in words): DX3puroβ6 (+), 0.625 nM (MMAE 1 nM, staurosporine 100 nM), 24, 48, 72 h; for Caspase-3/7 activity, times higher: DX3puroβ6, 0.625 nM, 24 h, untreated = 1, n = 4
Procedure: (§1) Caspase-3/7 activity was analyzed using an ApoTox-Glo Triplex Assay kit. Cells were seeded in a 96 well plate at the same density and using the same respective media as described for the WST-1 assay and incubated overnight (37 °C, 5% CO2). DX3puroβ6 and DX3puro cells were treated with 1 nM of MMAE (free, non-targeted drug) or 0.625 nM of the other compounds: NH2-2, [^natCu]2, NH2-PDC-1, or [^natCu]PDC-1. BxPC-3 and MIA PaCa-2 cells were treated with 10 nM of MMAE or 250 nM of the other compounds: NH2-2, [^natCu]2, NH2-PDC-1, or [^natCu]PDC-1. All cells were treated with 100 nM of staurosporine as a positive control.[24] Untreated cells (media) were used as a measure of endogenous caspase-3/7 activity (normalized to 1). Cells were treated (n = 4/cell line/compound/time) for 24, 48, or 72 h (37 °C, 5% CO2) prior to washing. After treatment, the media was removed, cells were washed, and Caspase-Glo 3/7 reagent was added, and incubated for 1 h at room temperature. Caspase-3/7 activity was analyzed by measuring luminescence with a Fluoroskan FL microplate reader according to the manufacturer’s protocol.

DX3puro (−) cells [2] = experiment: Caspase-3/7 activity assay (ApoTox-Glo), DX3puro; assay type: cell-based; conditions: 0.625 nM (MMAE 1 nM, staurosporine 100 nM), 24, 48, 72 h
Procedure: as §1

BxPC-3 (+) cells [3] = experiment: Caspase-3/7 activity assay (ApoTox-Glo), BxPC-3; assay type: cell-based; conditions: for Caspase-3/7 activity (in words): 250 nM (MMAE 10 nM, staurosporine 100 nM), 24, 48, 72 h; for Caspase-3/7 activity, fold increase: 250 nM, 48 h, untreated = 1, n = 4
Procedure: as §1

MIA PaCa-2 (−) cells [4] = experiment: Caspase-3/7 activity assay (ApoTox-Glo), MIA PaCa-2; assay type: cell-based; conditions: 250 nM (MMAE 10 nM, staurosporine 100 nM), 24, 48, 72 h
Procedure: as §1

DX3puroβ6 (+) cells [5] = experiment: WST-1 cell viability assay, DX3puroβ6; assay type: cell-based; conditions: for Fold more cytotoxic toward DX3puroβ6 (+) than DX3puro (−) cells: WST-1 EC50 ratio
Procedure: (§2) Peptides NH2-2 and [^natCu]2 were not toxic to any cells (Figure 3, gray and black, respectively).
(§3) Cell viability was measured after treatment with either NH2-2, [^natCu]2, MMAE (free, non-targeted drug), NH2-PDC-1, or [^natCu]PDC-1 in DX3puroβ6 (+) and DX3puro (−) cells at variable concentrations up to 5 nM, and in BxPC-3 (+) and MIA PaCa-2 (−) cells at variable concentrations up to 250 nM, or with MMAE at concentrations up to 10 nM. Cells were seeded in a 96 well plate at a density of 6000 cells/well for DX3puroβ6 and DX3puro, and at a density of 10,000 cells/well for BxPC-3 and MIA PaCa-2. DMEM media was used for all cells except for BxPC-3 (RPMI 1640 media). Cells (n = 6–8 wells/cell type/compound) were treated with different concentrations of NH2-2, [^natCu]2, MMAE, NH2-PDC-1, or [^natCu]PDC-1 dissolved in the respective media, as well as their respective media (no treatment) for 48 h (37 °C, 5% CO2), after which the media was removed; cells were washed twice with media (200 μL) and re-incubated in media (37 °C, 5% CO2) for 24 h. The media was then removed and the WST-1 reagent was added to each well, and the cells were incubated for 2 h at 37 °C. The 96 well plates were read at 450 nm by a Multiscan Ascent microplate reader. The percent cell viability was normalized to untreated cells (set as 100% viability) for each cell line.

DX3puro (−) cells [6] = experiment: WST-1 cell viability assay, DX3puro; assay type: cell-based; conditions: up to 5 nM
Procedure: as §2, §3

MIA PaCa-2 (−) cells [7] = experiment: WST-1 cell viability assay, MIA PaCa-2; assay type: cell-based
Procedure: as §2, §3

DX3puroβ6 (+) tumors = experiment: Therapy study, DX3puroβ6 (+) tumor-bearing mice; assay type: in vivo
Description: (§4) Mice treated with [^natCu]PDC-1 had slower tumor growth compared to the groups receiving saline, non-drug bearing peptide [^natCu]2, or free, non-targeted MMAE (Figure 7). […] All mice in the groups treated with saline, non-drug bearing peptide [^natCu]2, or free, non-targeted MMAE had met an end point criterion (≥2 cm in any direction and/or tumor ulceration) by 56 days, 70 days, and 64 days from start of treatment, respectively, with all these groups having the same median survival of 37 days (Figure 7B).
Tumor xenografts were established by subcutaneous injection of either DX3puroβ6 or DX3puro cells (3 × 10^6 cells in 100 μL serum-free DMEM/animal) into the flank. The tumors were allowed to grow for 19 days before the start of treatment (day 0). Mice were treated with either (1) saline, (2) peptide ([^natCu]2), 6 mg/kg, 1.12 μmol/kg), (3) non-targeted drug (MMAE, 0.3 mg/kg, 0.42 μmol/kg), or (4) PDC ([^natCu]PDC-1, 6 mg/kg, 0.88 μmol/kg). Dosing of MMAE was 0.3 mg/kg as per maximum dose with no physiological response.[25] The [^natCu]PDC-1 treatment groups consisted of n = 10/tumor model, while all other groups (saline, [^natCu]2, and MMAE) consisted of n = 4/tumor model. All groups received four doses (on days 0, 3, 6, and 9) via i.v. tail vein injection of the above dose dissolved in saline (100 μL). The mean weights and standard deviation of each group was 25.9 ± 1.2 g (saline), 25.6 ± 1.5 g ([^natCu]2), 25.8 ± 2.5 g (MMAE), 24.9 ± 1.9 g ([^natCu]PDC-1, DX3puroβ6 tumors), and 25.7 ± 2.0 g ([^natCu]PDC-1, DX3puro tumors) at day 0. Tumor volumes and body weights (to assess possible systemic toxicity) were measured starting on day 0, and once a week thereafter until the end of the study. Tumor volume (V) was determined according to the equation V = (π/6) × L × W × H, where L is the longest axis, W is the axis perpendicular to L, and H is perpendicular to the plane of L and W. End point determination criteria were: any axis >2 cm, active ulceration, or compromised health of the mouse (>20% loss of body weight from the start of the study). All data are represented as the mean ± SD and are plotted beginning at day 0. Survival curves were determined by Kaplan–Meier method.

DX3puro (−) tumors = experiment: Therapy study, DX3puro (−) tumor-bearing mice; assay type: in vivo
Description: as §4
Tumor xenografts were established by subcutaneous injection of either DX3puroβ6 or DX3puro cells (3 × 10^6 cells in 100 μL serum-free DMEM/animal) into the flank. The tumors were allowed to grow for 19 days before the start of treatment (day 0). […] Tumor volumes and body weights (to assess possible systemic toxicity) were measured starting on day 0, and once a week thereafter until the end of the study. Tumor volume (V) was determined according to the equation V = (π/6) × L × W × H, where L is the longest axis, W is the axis perpendicular to L, and H is perpendicular to the plane of L and W. End point determination criteria were: any axis >2 cm, active ulceration, or compromised health of the mouse (>20% loss of body weight from the start of the study). […] Survival curves were determined by Kaplan–Meier method.

BxPC-3 (+) cells [8] = experiment: WST-1 cell viability assay, BxPC-3; assay type: cell-based
Procedure: as §2, §3

[9] = 48 h treatment + 24 h media, mean ± SD

Row | Compound | Caspase-3/7 activity (in words) (DX3puroβ6 (+) cells [1]) | Caspase-3/7 activity (in words) (DX3puro (−) cells [2]) | Caspase-3/7 activity (in words) (BxPC-3 (+) cells [3]) | Caspase-3/7 activity (in words) (MIA PaCa-2 (−) cells [4]) | Fold more cytotoxic toward DX3puroβ6 (+) than DX3puro (−) cells (DX3puroβ6 (+) cells [5]) | Cytotoxicity (in words), WST-1 (DX3puro (−) cells [6]) | Caspase-3/7 activity, times higher (DX3puroβ6 (+) cells [1]) | Caspase-3/7 activity, fold increase (BxPC-3 (+) cells [3]) | other results
1 | CN[C@@H]1C[C@H]2O[C@@](C)([C@@H]1OC)n1c3ccccc3c3c4c(c5c6ccccc6n2c5c31)C(=O)NC4 [staurosporine, reference compound] | increased caspase-3/7 activity | increased caspase-3/7 activity | increased caspase-3/7 activity | increased caspase-3/7 activity |  |  |  |  | 
2 | CC[C@H](C)[C@@H]([C@@H](CC(=O)N1CCC[C@H]1[C@H](OC)[C@@H](C)C(=O)N[C@H](C)[C@@H](O)c1ccccc1)OC)N(C)C(=O)[C@@H](NC(=O)[C@H](C(C)C)N(C)C(=O)OCc1ccc(NC(=O)[C@H](CCCNC(N)=O)NC(=O)[C@@H](NC(=O)CCOCCOCCNC(=O)CCN2C(=O)CC(SC[C@H](NC(=O)CN3CCN(CC(=O)O)CCN(CC(=O)O)CCN(CC(=O)O)CC3)C(=O)NCCOCCOCCOCCOCCOCCOCCOCCOCCOCCOCCOCCOCCOCCOCCOCCOCCOCCOCCOCCOCCOCCOCCOCCOCCOCCOCCOCCOCCC(=O)N[C@@H](CC(N)=O)C(=O)N[C@@H](C)C(=O)N[C@H](C(=O)N3CCC[C@H]3C(=O)N[C@@H](CC(N)=O)C(=O)N[C@@H](CC(C)C)C(=O)N[C@@H](CCCNC(=N)N)C(=O)NCC(=O)N[C@@H](CC(=O)O)C(=O)N[C@@H](CC(C)C)C(=O)N[C@@H](CCC(N)=O)C(=O)N[C@H](C(=O)N[C@@H](CC(C)C)C(=O)N[C@@H](C)C(=O)N[C@@H](CCC(N)=O)C(=O)N[C@@H](CCCNC(=N)N)C(=O)N[C@H](C(=O)N[C@@H](C)C(=O)N[C@@H](CCCNC(=N)N)C(=O)N[C@H](C(=O)NCCOCCOCCOCCOCCOCCOCCOCCOCCOCCOCCOCCOCCOCCOCCOCCOCCOCCOCCOCCOCCOCCOCCOCCOCCOCCOCCOCCOCCC(N)=O)[C@@H](C)O)C(C)C)C(C)C)C(C)C)C2=O)C(C)C)cc1)C(C)C (some centres unmarked) [[^natCu]PDC-1, metal not drawn] |  | no observed change |  | slight increase | > 86 fold | no observable cytotoxic effects | > 5 times | > 3 fold | Concentration required for noticeable cytotoxic effects (MIA PaCa-2 (−) cells [7]; MIA PaCa-2, WST-1): ≥ 250 nM; Median survival (DX3puroβ6 (+) tumors; DX3puroβ6 (+) tumors, 6 mg/kg i.v. on days 0, 3, 6, 9, n = 10): 77 days; Mean tumor volume, times smaller than all other treatment groups (saline, [natCu]2, MMAE) (DX3puroβ6 (+) tumors; day 37): > 4 times; Mean tumor volume, times smaller than equally treated DX3puro (−) tumors (DX3puroβ6 (+) tumors; day 37, P = 0.0099): > 2.75 times; Body weight / systemic toxicity (in words) (DX3puroβ6 (+) tumors; four doses of 6 mg/kg i.v., body weight weekly, all groups compared, 6 mg/kg): No significant differences; also recorded: did not cause adverse systemic side-effects; Median survival, fold longer than other treatment groups (DX3puroβ6 (+) tumors; vs saline, [natCu]2, MMAE (37 days)): > 2 fold; Median survival (DX3puro (−) tumors; 6 mg/kg i.v. on days 0, 3, 6, 9, n = 10): 49 days; Time at which all mice had reached an end point (DX3puro (−) tumors; from start of treatment): 95 days
3 | CC[C@H](C)[C@@H]([C@@H](CC(=O)N1CCC[C@H]1[C@H](OC)[C@@H](C)C(=O)N[C@H](C)[C@@H](O)c1ccccc1)OC)N(C)C(=O)[C@@H](NC(=O)[C@H](C(C)C)N(C)C(=O)OCc1ccc(NC(=O)[C@H](CCCNC(N)=O)NC(=O)[C@@H](NC(=O)CCOCCOCCNC(=O)CCN2C(=O)CC(SC[C@H](N)C(=O)NCCOCCOCCOCCOCCOCCOCCOCCOCCOCCOCCOCCOCCOCCOCCOCCOCCOCCOCCOCCOCCOCCOCCOCCOCCOCCOCCOCCOCCC(=O)N[C@@H](CC(N)=O)C(=O)N[C@@H](C)C(=O)N[C@H](C(=O)N3CCC[C@H]3C(=O)N[C@@H](CC(N)=O)C(=O)N[C@@H](CC(C)C)C(=O)N[C@@H](CCCNC(=N)N)C(=O)NCC(=O)N[C@@H](CC(=O)O)C(=O)N[C@@H](CC(C)C)C(=O)N[C@@H](CCC(N)=O)C(=O)N[C@H](C(=O)N[C@@H](CC(C)C)C(=O)N[C@@H](C)C(=O)N[C@@H](CCC(N)=O)C(=O)N[C@@H](CCCNC(=N)N)C(=O)N[C@H](C(=O)N[C@@H](C)C(=O)N[C@@H](CCCNC(=N)N)C(=O)N[C@H](C(=O)NCCOCCOCCOCCOCCOCCOCCOCCOCCOCCOCCOCCOCCOCCOCCOCCOCCOCCOCCOCCOCCOCCOCCOCCOCCOCCOCCOCCOCCC(N)=O)[C@@H](C)O)C(C)C)C(C)C)C(C)C)C2=O)C(C)C)cc1)C(C)C (some centres unmarked) [NH2-PDC-1] |  | no observed change |  | no significant increase | > 31 fold |  | > 5 times | > 3 fold | EC50 (DX3puroβ6 (+) cells [5]; DX3puroβ6 (+), 48 h treatment + 24 h media, mean ± SD): 0.159 ± 0.014 nM; EC50 (DX3puro (−) cells [6]; [9]): > 5 nM; EC50 (BxPC-3 (+) cells [8]; [9]): 222 ± 114 nM; EC50 (MIA PaCa-2 (−) cells [7]; MIA PaCa-2 (−), 48 h treatment + 24 h media, up to 250 nM (MMAE up to 10 nM), mean ± SD): > 250 nM
4 | NH2-C-αvβ6-BP [NH2-2] | no effect on caspase-3/7 activity | no effect on caspase-3/7 activity | no effect on caspase-3/7 activity | no effect on caspase-3/7 activity |  | not toxic |  |  | Cytotoxicity (in words), WST-1 (DX3puroβ6 (+) cells [5]; DX3puroβ6 (+), up to 5 nM): not toxic; Cytotoxicity (in words), WST-1 (BxPC-3 (+) cells [8]; up to 250 nM): not toxic; Cytotoxicity (in words), WST-1 (MIA PaCa-2 (−) cells [7]; MIA PaCa-2 (−), up to 250 nM): not toxic
